US12479847B2 (DANA-FARBER CANCER INSTITUTE, INC., priority 2019, dated 2025)
Where two headings read alike, the source gives them in different places.

What was measured:
Assay in all cases: KINOMEscan (ScanMAX) kinase profiling
Format in all cases: binding
[1] = target: T1, panel of 468 kinases (Homo sapiens, UniProt Q99759); conditions: MAP3K3; 1 μM; read-out: % control
T1 construct: purchased KINOMEscan (ScanMAX) service
T1 sequence (Q99759 1-626): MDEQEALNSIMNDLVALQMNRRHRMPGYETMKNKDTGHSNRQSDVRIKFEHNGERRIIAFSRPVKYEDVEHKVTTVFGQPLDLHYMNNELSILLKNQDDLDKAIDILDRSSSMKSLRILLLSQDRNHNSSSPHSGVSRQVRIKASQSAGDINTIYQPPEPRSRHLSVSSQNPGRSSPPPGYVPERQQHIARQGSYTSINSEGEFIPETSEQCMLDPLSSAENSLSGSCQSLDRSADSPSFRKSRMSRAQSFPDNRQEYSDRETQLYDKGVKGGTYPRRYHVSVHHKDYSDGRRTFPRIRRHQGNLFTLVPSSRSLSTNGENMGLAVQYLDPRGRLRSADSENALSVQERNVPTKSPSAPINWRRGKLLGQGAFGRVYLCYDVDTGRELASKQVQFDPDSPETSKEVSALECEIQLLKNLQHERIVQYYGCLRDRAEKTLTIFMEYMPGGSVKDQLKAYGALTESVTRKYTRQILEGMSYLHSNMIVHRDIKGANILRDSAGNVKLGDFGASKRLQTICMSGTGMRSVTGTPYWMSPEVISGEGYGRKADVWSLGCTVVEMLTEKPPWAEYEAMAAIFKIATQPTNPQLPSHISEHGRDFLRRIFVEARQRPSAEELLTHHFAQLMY

[2] = target: T2, panel of 468 kinases (Homo sapiens, UniProt Q9UQM7); conditions: CAMK2A; 1 μM; read-out: % control
T2 construct: purchased KINOMEscan (ScanMAX) service

[3] = target: T3, panel of 468 kinases (Homo sapiens, UniProt P36888, D835V); conditions: FLT3(D835V); 1 μM; read-out: % control
T3 construct: purchased KINOMEscan (ScanMAX) service
T3 sequence (P36888 27-993 D835V): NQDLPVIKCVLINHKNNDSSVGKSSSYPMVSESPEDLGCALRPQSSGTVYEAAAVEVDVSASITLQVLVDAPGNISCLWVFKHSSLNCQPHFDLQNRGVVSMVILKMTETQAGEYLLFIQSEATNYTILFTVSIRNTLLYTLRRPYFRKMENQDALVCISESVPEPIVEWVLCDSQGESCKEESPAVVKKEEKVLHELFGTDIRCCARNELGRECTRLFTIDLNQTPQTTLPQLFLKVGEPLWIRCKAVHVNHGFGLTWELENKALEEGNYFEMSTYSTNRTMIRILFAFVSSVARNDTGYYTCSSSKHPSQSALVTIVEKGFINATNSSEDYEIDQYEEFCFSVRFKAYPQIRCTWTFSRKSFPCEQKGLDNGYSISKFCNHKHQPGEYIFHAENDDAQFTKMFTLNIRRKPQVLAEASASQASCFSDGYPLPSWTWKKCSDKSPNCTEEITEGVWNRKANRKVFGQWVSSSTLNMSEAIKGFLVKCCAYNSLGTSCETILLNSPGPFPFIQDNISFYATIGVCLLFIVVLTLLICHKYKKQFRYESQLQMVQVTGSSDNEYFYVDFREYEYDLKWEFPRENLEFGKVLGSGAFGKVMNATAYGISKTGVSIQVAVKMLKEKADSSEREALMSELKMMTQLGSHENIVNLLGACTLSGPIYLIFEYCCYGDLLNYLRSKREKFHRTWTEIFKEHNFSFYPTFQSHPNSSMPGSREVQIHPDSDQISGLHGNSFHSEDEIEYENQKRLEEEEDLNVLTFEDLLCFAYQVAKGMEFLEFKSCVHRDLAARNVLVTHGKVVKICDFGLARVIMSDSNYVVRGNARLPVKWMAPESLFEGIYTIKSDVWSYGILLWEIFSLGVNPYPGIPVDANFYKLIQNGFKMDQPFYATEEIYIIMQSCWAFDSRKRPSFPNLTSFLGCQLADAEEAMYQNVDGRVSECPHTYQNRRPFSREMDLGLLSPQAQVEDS

[4] = target: T4, panel of 468 kinases (Homo sapiens, UniProt O43353); conditions: RIPK2; 1 μM; read-out: % control
T4 construct: purchased KINOMEscan (ScanMAX) service

[5] = target: T5, panel of 468 kinases (Homo sapiens, UniProt P31152); conditions: ERK4; 1 μM; read-out: % control
T5 construct: purchased KINOMEscan (ScanMAX) service

[6] = target: T6, panel of 468 kinases (Homo sapiens, UniProt Q13163); conditions: MEK5; 1 μM; read-out: % control
T6 construct: purchased KINOMEscan (ScanMAX) service
T6 sequence (Q13163 1-448): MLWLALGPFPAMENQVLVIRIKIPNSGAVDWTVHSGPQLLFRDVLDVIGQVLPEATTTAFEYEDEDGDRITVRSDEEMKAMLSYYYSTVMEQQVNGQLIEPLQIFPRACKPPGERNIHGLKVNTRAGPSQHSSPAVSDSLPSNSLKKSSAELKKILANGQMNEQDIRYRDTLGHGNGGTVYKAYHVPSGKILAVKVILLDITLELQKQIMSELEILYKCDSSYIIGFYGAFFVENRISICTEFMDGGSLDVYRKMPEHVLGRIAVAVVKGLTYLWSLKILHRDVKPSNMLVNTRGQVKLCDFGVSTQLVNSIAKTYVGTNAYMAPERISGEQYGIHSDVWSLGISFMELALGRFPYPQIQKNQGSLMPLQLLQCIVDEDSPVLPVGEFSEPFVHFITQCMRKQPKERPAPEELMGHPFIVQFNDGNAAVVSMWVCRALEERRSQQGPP

[7] = target: T7, panel of 468 kinases (Homo sapiens, UniProt P23458); conditions: 1 μM, read-out: % control
T7 construct: purchased KINOMEscan (ScanMAX) service

[8] = target: T8, panel of 468 kinases (Homo sapiens, UniProt Q02763); conditions: TIE2; 1 μM; read-out: % control
T8 construct: purchased KINOMEscan (ScanMAX) service
T8 sequence (Q02763 23-1124): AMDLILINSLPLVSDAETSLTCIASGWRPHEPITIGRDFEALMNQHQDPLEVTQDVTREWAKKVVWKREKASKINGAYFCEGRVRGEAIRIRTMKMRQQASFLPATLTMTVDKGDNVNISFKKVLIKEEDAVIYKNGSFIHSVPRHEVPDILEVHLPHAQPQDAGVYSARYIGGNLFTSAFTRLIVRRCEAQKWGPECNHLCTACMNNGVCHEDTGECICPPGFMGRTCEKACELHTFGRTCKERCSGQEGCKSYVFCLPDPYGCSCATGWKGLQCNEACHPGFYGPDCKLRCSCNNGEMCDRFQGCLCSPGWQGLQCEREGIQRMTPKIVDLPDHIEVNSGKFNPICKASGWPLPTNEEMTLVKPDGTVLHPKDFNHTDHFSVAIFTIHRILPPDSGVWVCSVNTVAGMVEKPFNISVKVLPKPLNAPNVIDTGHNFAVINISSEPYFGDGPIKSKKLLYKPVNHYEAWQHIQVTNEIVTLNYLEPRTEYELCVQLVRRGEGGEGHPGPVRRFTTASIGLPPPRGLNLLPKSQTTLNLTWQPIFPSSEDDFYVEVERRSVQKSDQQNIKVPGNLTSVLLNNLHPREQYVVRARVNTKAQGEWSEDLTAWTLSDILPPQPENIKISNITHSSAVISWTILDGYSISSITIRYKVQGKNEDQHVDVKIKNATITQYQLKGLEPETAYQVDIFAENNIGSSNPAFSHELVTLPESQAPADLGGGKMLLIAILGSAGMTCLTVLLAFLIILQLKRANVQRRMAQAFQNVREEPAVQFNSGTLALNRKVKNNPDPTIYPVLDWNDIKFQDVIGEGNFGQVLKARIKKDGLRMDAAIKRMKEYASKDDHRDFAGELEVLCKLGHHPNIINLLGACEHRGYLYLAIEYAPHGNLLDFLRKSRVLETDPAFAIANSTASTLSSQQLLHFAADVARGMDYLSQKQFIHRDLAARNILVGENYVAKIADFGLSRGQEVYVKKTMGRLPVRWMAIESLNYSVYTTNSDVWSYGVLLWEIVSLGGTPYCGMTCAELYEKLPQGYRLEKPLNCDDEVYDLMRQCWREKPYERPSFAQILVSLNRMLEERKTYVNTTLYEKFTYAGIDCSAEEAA

T4 sequence (O43353 whole entry): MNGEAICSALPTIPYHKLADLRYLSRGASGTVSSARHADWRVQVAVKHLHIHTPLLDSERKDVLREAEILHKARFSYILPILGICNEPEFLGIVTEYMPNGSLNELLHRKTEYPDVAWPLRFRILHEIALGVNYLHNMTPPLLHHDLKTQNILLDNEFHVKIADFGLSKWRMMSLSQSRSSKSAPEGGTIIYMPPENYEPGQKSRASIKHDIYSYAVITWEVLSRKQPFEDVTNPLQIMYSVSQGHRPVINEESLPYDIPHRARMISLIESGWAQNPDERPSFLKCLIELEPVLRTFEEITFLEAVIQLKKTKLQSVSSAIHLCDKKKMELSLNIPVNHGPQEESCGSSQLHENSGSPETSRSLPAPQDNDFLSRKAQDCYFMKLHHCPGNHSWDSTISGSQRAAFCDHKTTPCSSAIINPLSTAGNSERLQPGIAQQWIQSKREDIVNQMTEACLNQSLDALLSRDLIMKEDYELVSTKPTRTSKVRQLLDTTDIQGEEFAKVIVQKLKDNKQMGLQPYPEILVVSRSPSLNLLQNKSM
T5 sequence (P31152 whole entry): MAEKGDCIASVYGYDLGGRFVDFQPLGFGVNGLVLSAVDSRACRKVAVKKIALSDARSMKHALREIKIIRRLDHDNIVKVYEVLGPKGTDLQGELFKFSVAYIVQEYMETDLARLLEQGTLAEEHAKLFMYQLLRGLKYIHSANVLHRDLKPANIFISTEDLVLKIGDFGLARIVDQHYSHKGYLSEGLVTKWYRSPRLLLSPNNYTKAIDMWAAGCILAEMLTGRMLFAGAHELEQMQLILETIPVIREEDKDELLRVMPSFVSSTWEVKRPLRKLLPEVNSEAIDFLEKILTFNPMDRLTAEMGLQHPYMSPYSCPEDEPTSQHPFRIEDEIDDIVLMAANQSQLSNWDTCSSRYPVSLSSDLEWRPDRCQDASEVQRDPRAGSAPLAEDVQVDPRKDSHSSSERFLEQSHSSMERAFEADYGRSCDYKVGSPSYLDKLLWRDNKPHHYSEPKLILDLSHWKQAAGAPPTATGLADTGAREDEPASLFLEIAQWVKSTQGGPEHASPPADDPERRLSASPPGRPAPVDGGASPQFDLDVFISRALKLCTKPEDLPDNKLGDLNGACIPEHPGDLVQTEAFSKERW
T2 sequence (Q9UQM7 whole entry): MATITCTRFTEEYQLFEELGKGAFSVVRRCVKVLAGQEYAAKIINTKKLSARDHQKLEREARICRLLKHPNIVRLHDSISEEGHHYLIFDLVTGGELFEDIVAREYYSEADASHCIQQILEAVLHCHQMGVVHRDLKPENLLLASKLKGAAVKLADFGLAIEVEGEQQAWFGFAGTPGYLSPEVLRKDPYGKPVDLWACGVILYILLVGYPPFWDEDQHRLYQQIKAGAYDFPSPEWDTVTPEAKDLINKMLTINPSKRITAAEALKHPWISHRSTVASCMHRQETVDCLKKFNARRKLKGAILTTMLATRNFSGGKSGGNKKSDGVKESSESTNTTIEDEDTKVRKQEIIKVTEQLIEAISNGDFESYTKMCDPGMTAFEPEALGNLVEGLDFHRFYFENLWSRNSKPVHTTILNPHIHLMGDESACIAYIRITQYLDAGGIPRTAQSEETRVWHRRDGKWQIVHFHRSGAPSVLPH
T7 sequence (P23458 whole entry): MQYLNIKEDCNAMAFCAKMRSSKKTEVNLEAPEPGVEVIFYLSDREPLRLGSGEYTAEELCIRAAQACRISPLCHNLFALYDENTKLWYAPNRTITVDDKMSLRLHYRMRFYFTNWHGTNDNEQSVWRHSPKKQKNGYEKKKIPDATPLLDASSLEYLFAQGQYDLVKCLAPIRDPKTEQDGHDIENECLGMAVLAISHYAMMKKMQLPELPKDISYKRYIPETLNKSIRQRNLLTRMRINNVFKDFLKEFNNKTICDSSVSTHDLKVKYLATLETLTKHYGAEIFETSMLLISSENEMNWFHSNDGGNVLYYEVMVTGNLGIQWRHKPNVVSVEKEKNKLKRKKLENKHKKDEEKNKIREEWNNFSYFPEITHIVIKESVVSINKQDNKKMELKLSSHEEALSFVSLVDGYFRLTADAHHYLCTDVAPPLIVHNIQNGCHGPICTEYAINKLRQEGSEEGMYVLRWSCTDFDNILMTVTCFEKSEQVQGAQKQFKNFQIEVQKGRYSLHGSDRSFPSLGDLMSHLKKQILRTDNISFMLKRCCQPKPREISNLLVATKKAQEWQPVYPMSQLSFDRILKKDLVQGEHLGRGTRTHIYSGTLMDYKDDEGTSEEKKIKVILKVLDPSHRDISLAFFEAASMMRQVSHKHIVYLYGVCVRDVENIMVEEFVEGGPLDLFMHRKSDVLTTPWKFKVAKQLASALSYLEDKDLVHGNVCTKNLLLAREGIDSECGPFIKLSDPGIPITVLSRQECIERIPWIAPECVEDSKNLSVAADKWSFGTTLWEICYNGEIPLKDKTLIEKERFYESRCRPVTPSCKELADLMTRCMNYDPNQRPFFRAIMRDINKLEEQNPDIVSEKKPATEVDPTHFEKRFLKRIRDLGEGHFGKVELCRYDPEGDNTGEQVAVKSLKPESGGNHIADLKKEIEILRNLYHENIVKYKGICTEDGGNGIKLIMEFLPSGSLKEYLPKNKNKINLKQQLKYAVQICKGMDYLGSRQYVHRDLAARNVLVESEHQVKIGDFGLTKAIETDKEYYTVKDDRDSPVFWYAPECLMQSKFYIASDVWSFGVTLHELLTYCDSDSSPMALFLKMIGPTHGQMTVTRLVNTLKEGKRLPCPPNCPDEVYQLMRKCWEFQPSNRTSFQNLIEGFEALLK

For `CNc1nc(Nc2ccc(S(=O)(=O)N3CCC(N4CCOCC4)CC3)cc2OC)nc2[nH]cc(Cl)c12` [Compound 12, 5-chloro-N2-(2-methoxy-4-((4-morpholinopiperidin-1-yl)sulfonyl)phenyl)-N4-methyl-7H-pyrrolo[2,3-d]pyrimidine-2,4-diamine], the remaining binding at 1 µM [1] was 100%, the remaining binding at 1 µM [2] was 100% and the remaining binding at 1 µM [3] was 72%. For the same compound, the remaining binding at 1 µM [4] was 100%, the remaining binding at 1 µM [5] was 100% and the remaining binding at 1 µM [6] was 86%. It also gave a remaining binding at 1 µM ([7]; JAK1(JH1domain-catalytic)) of 100%, a remaining binding at 1 µM ([7]; JAK1(JH2domain-pseudokinase)) of 73% and a remaining binding at 1 µM [8] of 94%.

Work on `CNc1nc(Nc2ccc(P3(=O)CCN(C4CCOCC4)CC3)cc2OC)nc2[nH]cc(Cl)c12` [Compound 77, 4-(4-((5-chloro-4-(methylamino)-7H-pyrrolo[2,3-d]pyrimidin-2-yl)amino)-3-methoxyphenyl)-1-(tetrahydro-2H-pyran-4-yl)-1,4-azaphosphinane 4-oxide] yielded a remaining binding at 1 µM [1] of 100%, a remaining binding at 1 µM [2] of 88% and a remaining binding at 1 µM [3] of 9.7%. The remaining binding at 1 µM [4] was 100%, the remaining binding at 1 µM [5] was 100% and the remaining binding at 1 µM [6] was 61%. It also gave a remaining binding at 1 µM ([7]; JAK1(JH1domain-catalytic)) of 100%, a remaining binding at 1 µM ([7]; JAK1(JH2domain-pseudokinase)) of 34% and a remaining binding at 1 µM [8] of 100%.

Compound `CNc1nc(Nc2ccc(C(=O)N3CCC(N4CCOCC4)CC3)c3c2OCO3)nc2[nH]cc(Cl)c12` [Compound 75, (7-((5-chloro-4-(methylamino)-7H-pyrrolo[2,3-d]pyrimidin-2-yl)amino)benzo[d][1,3]dioxol-4-yl)(4-morpholinopiperidin-1-yl)methanone] has a remaining binding at 1 µM [1] of 43%, a remaining binding at 1 µM [2] of 70% and a remaining binding at 1 µM [3] of 1.8%. For the same compound, the remaining binding at 1 µM [4] was 100%, the remaining binding at 1 µM [5] was 100% and the remaining binding at 1 µM [6] was 47%. The remaining binding at 1 µM ([7]; JAK1(JH1domain-catalytic)) was 100%, the remaining binding at 1 µM ([7]; JAK1(JH2domain-pseudokinase)) was 64% and the remaining binding at 1 µM [8] was 94%.
